Test results taken from ChEMBL document CHEMBL1201862, “PubChem BioAssay data set” (2004).
The source made the active and inactive calls.

Experiments:
Genome polyprotein = Genome polyprotein (dengue virus type 2, UniProt P29990); assay: Dengue-2 NS5 methyltransferase inhibitors, primary screen, biochemical, confirmation dose response (AID 588689); type: functional
[1] = molecular target: Glutathione-S-transferase (Schistosoma japonicum, UniProt Q26513); assay: biotin-GST/anti-GST TR-FRET signal inhibitors, dose response, artefact control for Vif-APOBEC3G degradation inhibitor project, biochemical (AID 1117362); type: functional
[2] = molecular target: G-protein coupled receptor 35 (Homo sapiens, UniProt Q9HC97); assay: GPR35 antagonists blocking zaprinast-driven arrestin recruitment, primary screen, imaging, U2OS, beta-arrestin-GFP, zaprinast agonist (AID 2058); type: functional;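 further: antagonist potency meaning inhibition of agonist-induced arrestin redistribution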
[3] = molecular target: G-protein coupled receptor 55 (Homo sapiens, UniProt Q9Y2T6); assay: GPR55 antagonists blocking LPI-driven arrestin recruitment, primary screen, imaging, U2OS, beta-arrestin-GFP, LPI agonist (AID 2013); type: functional;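 further: antagonist potency measured as reduced agonist-driven arrestin aggregation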
[4] = molecular target: Bifunctional protein GlmU (Mycobacterium tuberculosis, UniProt P9WMN3); assay: Inhibitors of Mycobacterial Glucosamine-1-phosphate acetyl transferase (GlmU). Secondary screen.; set-up: species or system Mycobacterium tuberculosis H37Rv
Leucine aminopeptidase = molecular target: T1, Leucine aminopeptidase (Plasmodium falciparum 3D7, UniProt Q8IL11); assay: P. falciparum M17LAP inhibitors, primary screen, biochemical, fluorogenic H-Leu-NHMec substrate, 1536-well (AID 1619); type: functional
T1 sequence (Q8IL11 whole entry): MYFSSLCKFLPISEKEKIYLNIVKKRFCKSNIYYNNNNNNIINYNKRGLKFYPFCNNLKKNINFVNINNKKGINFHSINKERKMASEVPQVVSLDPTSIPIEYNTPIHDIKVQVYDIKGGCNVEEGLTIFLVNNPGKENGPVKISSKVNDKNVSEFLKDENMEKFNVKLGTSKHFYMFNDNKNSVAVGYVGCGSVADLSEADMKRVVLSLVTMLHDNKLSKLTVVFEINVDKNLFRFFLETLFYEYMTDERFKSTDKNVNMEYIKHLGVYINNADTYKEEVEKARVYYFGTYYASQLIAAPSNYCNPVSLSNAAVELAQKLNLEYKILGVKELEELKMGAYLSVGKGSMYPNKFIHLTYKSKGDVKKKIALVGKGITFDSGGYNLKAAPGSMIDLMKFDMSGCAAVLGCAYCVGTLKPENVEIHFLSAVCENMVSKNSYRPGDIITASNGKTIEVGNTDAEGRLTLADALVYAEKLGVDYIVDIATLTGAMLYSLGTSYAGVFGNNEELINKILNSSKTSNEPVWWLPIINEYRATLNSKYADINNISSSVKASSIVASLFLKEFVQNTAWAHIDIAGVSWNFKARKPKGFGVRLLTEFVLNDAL

[5] = molecular target: Protein-tyrosine kinase 2-beta (Homo sapiens, UniProt Q14289);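 further: potency of inhibitors of PYK2 kinase phosphorylation of poly-GT substrate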
[6] = inhibitors of HIV Env-driven cell fusion, dose response, cherry-pick (AID 652057); type: functional, cell-based
[7] = CEM21 lymphoblast cell cytotoxicity, dose response, cytotoxicity control for viral fusion inhibitor project, CellTiter-Glo luminescence, cherry-picked (AID 652042); type: functional, cell-based;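 further: potency for signal decrease meaning cytotoxicity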
[8] = ZM109 Env clade C HIV-1 fusion inhibitors, dose response, HeLa effector, CEM target cells, luciferase, cherry-pick (AID 652058); type: functional, cell-based
[9] = off-target signal loss in HeLa-CEM21 co-culture – HeLa F-luc CTL cells, cherry-picked, counter-screen for HIV-1 Env fusion inhibitor project, dose response (AID 652040); type: functional, cell-based;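 further: potency for signal decrease marking cytotoxic or nonspecific inhibition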
[10] = inhibitors of clade B AD8 Env fusion, dose response, cell-based, cherry-pick (AID 652062); type: functional;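 further: luciferase signal from cell-cell fusion driven by HIV-1 clade B AD8 Env; potency is for inhibitors of fusion seen as a drop in luminescence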
[11] = P. falciparum 3D7-ScDHODH growth inhibitors, dose response, SYBR Green, dry powder samples (AID 1159570); type: functional, cell-based;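 further: parasite growth measured after 72 hours of compound exposure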
[12] = HepG2 cell cytotoxicity, dose response, cytotoxicity control, plate reader, dry powder samples (AID 1159569); type: functional, cell-based;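 further: inhibitor potency with signal falling toward the positive control level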
[13] = P. falciparum Dd2 growth inhibitors, dose response, SYBR Green, cherry-picked samples (AID 1159567); type: functional, cell-based
[14] = P. falciparum Dd2 growth inhibitors, dose response, SYBR Green, dry powder samples (AID 1159566); type: functional, cell-based;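 further: potency for growth inhibition with lower SYBR green DNA signal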
[15] = P. falciparum ATP4 D1247Y mutant growth inhibitors, dose response, NITD609-resistant line, SYBR Green, dry powder (AID 1159571); type: functional, cell-based;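 further: parasites synchronized at ring stage by sorbitol before testing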
HEK293 [16] = assay: cells; conditions: Homo sapiens
HEK293 [17] = assay: cells; conditions: Homo sapiens; remark: listed apart in the source
[18] = molecular target: E3 ubiquitin-protein ligase Mdm2 (Homo sapiens, UniProt Q00987); assay: enhancers of MDM2-luciferase reporter signal, concentration-effect titration, project on inhibitors of MDM2 ubiquitin ligase, cellular assay, luminescent readout, 384-well plate format (AID 1394); type: functional;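 further: MDM2 E3 inhibitors raise luminescence so EC50 is for signal enhancement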
H9c2 = assay: cells; type: functional, cell-based; conditions: Rattus norvegicus, H9c2, Myocardium
[19] = molecular target: 26S proteasome non-ATPase regulatory subunit 14 (Homo sapiens, UniProt O00487); assay: inhibition of proteasome subunit RPN11 – biochemical, fluorescence polarization, uHTS hits, confirmation (AID 602368); type: functional
[20] = molecular target: 72 kDa type IV collagenase (Homo sapiens, UniProt P08253); assay: Dose Response validation of uHTS RPN11 inhibitor hits using a MMP-2 Fluorescence assay.; type: functional
Prothrombin = Prothrombin (Bos taurus, UniProt P00735); assay: thrombin inhibition, dose response, biochemical, fluorescence polarization, uHTS hits (AID 602369); type: functional

Sequence of Bifunctional protein GlmU (P9WMN3 whole entry): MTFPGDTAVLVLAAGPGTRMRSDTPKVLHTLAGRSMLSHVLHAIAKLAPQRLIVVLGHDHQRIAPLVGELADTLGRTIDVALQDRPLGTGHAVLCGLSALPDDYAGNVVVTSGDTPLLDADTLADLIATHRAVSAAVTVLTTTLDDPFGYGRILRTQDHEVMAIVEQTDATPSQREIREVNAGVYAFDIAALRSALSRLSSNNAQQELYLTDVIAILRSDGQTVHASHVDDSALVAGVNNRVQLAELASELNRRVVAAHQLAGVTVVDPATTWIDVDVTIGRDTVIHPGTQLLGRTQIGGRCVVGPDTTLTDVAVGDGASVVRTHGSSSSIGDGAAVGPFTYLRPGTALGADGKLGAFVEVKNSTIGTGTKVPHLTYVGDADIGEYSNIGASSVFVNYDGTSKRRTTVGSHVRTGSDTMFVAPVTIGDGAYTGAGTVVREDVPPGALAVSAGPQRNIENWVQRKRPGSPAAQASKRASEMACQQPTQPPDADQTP
Sequence of E3 ubiquitin-protein ligase Mdm2 (Q00987 whole entry): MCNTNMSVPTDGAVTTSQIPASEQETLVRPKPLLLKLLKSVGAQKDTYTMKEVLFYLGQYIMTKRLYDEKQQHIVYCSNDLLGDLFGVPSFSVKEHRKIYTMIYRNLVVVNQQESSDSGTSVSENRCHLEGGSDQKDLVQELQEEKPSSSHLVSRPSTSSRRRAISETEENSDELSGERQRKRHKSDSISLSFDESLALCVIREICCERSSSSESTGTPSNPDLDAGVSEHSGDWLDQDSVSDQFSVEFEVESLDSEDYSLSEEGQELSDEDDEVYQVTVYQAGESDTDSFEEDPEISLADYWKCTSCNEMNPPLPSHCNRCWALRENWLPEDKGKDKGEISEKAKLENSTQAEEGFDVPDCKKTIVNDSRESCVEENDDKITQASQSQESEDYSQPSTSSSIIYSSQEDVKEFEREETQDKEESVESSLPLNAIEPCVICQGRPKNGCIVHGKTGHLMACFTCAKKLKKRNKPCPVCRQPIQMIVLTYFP
Sequence of Protein-tyrosine kinase 2-beta (Q14289 whole entry, the tested form may be a part): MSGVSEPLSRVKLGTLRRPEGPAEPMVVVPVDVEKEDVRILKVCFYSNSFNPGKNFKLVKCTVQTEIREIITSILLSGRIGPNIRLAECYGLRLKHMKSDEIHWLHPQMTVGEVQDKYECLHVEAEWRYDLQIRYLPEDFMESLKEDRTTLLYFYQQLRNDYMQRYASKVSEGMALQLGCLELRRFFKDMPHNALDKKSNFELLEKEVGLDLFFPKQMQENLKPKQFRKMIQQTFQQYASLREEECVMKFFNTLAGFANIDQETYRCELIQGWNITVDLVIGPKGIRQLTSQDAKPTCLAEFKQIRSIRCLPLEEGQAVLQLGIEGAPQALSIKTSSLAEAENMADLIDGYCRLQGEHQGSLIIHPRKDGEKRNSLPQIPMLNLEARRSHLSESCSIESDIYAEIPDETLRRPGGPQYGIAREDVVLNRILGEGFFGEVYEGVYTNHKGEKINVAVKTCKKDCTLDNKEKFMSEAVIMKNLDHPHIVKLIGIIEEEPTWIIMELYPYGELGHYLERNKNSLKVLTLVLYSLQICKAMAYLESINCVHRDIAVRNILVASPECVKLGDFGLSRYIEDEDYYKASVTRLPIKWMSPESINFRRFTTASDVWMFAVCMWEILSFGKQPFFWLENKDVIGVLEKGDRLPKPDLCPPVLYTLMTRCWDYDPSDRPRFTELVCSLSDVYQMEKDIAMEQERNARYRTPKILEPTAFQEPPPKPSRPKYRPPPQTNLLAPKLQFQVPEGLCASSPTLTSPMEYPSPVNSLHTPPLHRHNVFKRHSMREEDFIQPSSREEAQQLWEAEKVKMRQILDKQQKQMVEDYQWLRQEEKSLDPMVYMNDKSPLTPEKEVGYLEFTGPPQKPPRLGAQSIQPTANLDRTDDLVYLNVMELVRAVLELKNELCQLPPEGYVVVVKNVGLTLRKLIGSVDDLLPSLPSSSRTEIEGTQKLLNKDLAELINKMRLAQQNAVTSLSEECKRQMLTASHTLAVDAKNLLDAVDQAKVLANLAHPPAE
Sequence of Glutathione-S-transferase (Q26513 whole entry): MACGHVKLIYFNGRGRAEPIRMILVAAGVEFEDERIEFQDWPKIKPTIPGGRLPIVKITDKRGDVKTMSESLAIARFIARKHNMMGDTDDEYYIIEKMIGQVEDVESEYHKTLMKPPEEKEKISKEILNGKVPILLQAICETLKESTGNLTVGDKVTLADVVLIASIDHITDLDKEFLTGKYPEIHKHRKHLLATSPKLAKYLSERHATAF
Sequence of G-protein coupled receptor 55 (Q9Y2T6 whole entry): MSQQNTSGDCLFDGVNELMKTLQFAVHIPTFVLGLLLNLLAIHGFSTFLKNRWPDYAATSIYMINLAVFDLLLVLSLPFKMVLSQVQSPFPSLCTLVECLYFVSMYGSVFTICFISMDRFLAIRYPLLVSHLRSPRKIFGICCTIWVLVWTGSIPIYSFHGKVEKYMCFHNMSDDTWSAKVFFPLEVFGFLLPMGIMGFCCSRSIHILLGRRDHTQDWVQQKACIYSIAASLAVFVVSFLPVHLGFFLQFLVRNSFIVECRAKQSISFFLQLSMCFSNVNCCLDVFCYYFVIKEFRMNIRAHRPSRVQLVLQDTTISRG
Sequence of 26S proteasome non-ATPase regulatory subunit 14 (O00487 whole entry): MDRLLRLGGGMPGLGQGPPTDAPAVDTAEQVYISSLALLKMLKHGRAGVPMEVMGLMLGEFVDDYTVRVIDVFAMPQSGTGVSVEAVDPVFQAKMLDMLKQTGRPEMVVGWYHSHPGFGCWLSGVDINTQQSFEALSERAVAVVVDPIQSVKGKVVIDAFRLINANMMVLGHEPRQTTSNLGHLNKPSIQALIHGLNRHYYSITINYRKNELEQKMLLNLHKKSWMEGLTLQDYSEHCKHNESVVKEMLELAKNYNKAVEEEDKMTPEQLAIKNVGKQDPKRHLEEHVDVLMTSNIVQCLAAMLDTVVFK
Sequence of Genome polyprotein (P29990 2492-3391 limits assumed): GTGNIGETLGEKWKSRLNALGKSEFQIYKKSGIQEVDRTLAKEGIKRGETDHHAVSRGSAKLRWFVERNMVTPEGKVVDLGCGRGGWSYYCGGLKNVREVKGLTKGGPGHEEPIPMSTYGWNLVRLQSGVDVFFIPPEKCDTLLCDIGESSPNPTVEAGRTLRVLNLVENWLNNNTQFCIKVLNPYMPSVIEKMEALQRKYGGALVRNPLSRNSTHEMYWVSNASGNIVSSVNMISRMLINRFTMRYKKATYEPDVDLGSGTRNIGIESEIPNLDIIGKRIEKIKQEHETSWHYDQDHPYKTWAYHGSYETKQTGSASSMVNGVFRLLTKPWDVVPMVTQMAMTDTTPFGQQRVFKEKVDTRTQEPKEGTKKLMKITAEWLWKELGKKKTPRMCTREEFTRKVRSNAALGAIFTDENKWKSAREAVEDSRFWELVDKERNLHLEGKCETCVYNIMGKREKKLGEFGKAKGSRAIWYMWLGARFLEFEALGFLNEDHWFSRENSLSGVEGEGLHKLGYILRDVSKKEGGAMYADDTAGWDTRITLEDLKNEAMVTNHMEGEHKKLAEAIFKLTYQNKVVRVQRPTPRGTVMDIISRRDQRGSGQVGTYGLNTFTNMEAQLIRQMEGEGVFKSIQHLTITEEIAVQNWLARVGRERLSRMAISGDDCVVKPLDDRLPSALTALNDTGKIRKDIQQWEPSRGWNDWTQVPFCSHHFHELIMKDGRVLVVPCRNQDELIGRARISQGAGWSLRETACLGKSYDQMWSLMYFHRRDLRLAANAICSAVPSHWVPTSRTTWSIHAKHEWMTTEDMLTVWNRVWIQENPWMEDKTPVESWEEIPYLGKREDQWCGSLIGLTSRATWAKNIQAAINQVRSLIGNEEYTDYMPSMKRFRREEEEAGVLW
Sequence of G-protein coupled receptor 35 (Q9HC97 whole entry): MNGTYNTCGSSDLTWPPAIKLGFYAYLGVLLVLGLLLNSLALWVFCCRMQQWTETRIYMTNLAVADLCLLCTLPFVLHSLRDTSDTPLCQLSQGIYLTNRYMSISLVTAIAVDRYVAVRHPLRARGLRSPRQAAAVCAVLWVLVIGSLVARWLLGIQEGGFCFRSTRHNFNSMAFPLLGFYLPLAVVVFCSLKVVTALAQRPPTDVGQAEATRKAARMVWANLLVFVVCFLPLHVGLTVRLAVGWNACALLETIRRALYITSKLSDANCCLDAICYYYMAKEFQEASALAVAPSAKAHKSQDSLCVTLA
Sequence of 72 kDa type IV collagenase (P08253 whole entry): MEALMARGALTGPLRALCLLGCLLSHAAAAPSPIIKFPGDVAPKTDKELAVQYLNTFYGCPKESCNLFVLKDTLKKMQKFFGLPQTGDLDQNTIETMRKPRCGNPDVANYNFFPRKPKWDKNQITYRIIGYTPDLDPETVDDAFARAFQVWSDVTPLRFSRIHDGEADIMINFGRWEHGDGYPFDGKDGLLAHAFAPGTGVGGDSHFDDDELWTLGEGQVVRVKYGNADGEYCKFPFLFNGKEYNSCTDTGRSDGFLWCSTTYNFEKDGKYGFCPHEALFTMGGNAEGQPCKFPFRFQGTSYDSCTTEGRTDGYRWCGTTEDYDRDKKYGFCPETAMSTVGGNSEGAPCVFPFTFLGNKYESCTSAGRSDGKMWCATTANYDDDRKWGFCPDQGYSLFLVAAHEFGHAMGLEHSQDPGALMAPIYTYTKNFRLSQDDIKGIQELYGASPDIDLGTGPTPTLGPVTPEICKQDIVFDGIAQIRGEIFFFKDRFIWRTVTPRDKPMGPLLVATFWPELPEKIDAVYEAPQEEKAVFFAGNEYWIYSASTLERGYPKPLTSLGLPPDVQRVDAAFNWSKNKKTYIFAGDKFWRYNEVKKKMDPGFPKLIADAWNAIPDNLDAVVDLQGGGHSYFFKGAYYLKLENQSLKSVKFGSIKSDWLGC

## O=C1CC=C2C3CC4N(CCC45c4cc(O)c(O)cc4N1C25)CC3=CCBr (stereo not given)
Genome polyprotein
  IC50: 31.5 µM (active)
[1]
  IC50: 3.05 µM (active)

## O=C1C=CC(=O)N1CCCCCCN1C(=O)C=CC1=O
[2]
  IC50: 6.23 µM (active)
[3]
  IC50: 9.79 µM (active)
[4]
  IC50: 118 µM (active)

## O=C(O)c1cccc(-c2ccc(/C=N/NC(=O)c3cccnc3)o2)c1
Leucine aminopeptidase
  IC50: 37.5 µM (active)
[4]
  IC50: 185 µM (active)

## C=CCn1c(SCC(=O)N2CCCC2)nc2scc(-c3cccs3)c2c1=O
[5]
  IC50: > 69.5 µM (not active)

## Cc1ccc(S(=O)(=O)N(C)C[C@@H]2OCc3ccccc3-c3c(n(C)c4ccccc34)C(=O)N([C@H](C)CO)C[C@@H]2C)cc1
[6]
  AC50: 1.87 µM (active)
[7]
  AC50: 29.6 µM (active)
[8]
  AC50: 2 µM (active)
[9]
  AC50: 1.66 µM (active)
[10]
  AC50: 2.16 µM (active)
[11]
  AC50: 0.151 µM (active)
[12]
  AC50: 52.3 µM (active)
[13]
  AC50: 0.676 µM (active)
[14]
  AC50: 0.0655 µM (active)
[15]
  AC50: 0.106 µM (active)
HEK293 [16]
  EC50: > 59.6 µM (inactive)
HEK293 [17]
  EC50: > 59.6 µM (inactive)

## COc1cccc(/C=N/NC(=O)c2[nH]c(C)c(C(=O)N/N=C/c3cccc(OC)c3)c2C)c1
[18]
  EC50: 6.15 µM (not active)
H9c2
  IC50: 10.6 µM (active)
[19]
  IC50: 1.41 µM (active)
[20]
  IC50: > 100 µM (inactive)
Prothrombin
  IC50: > 100 µM (inactive)
